Experiments:
Assay in all cases: relative viability (nuclei count vs DMSO), 5 days (fraction); higher = more cells survive
Dabrafenib + Decitabine = compound: CC(C)(C)c1nc(-c2cccc(NS(=O)(=O)c3c(F)cccc3F)c2F)c(-c2ccnc(N)n2)s1 [Dabrafenib] + Nc1ncn([C@H]2C[C@H](O)[C@@H](CO)O2)c(=O)n1 [Decitabine] (partner 2 µM)
Procedure, shortened: (§1)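 Lung cancer cell lines were pin-tool dosed in 1536-well plates on the day after seeding, with either a lone drug or a fixed anchor-drug dose plus five library-drug doses (not always all listed) in √10 steps. Nuclei were counted on 4× images after 5 days. Relative viability is the ratio of treated-well to vehicle-well nuclei counts, with each value a median of duplicate plates.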

VX-702 + Vorinostat = compound: NC(=O)c1ccc(N(C(N)=O)c2c(F)cccc2F)nc1-c1ccc(F)cc1F [VX-702] + O=C(CCCCCCC(=O)Nc1ccccc1)NO [Vorinostat] (partner 1 µM)
Procedure, shortened: as §1

Dabrafenib + Crizotinib = compound: CC(C)(C)c1nc(-c2cccc(NS(=O)(=O)c3c(F)cccc3F)c2F)c(-c2ccnc(N)n2)s1 [Dabrafenib] + C[C@@H](Oc1cc(-c2cnn(C3CCNCC3)c2)cnc1N)c1c(Cl)ccc(F)c1Cl [Crizotinib] (partner 1 µM)
Procedure, shortened: as §1

VX-702 + Tozasertib = compound: NC(=O)c1ccc(N(C(N)=O)c2c(F)cccc2F)nc1-c1ccc(F)cc1F [VX-702] + Cc1cc(Nc2cc(N3CCN(C)CC3)nc(Sc3ccc(NC(=O)C4CC4)cc3)n2)n[nH]1 [Tozasertib] (partner 0.1 µM)
Procedure, shortened: as §1

Row | Cell Line | relative viability (Dabrafenib + Decitabine; first compound 0.003 µM) | relative viability (Dabrafenib + Decitabine; first compound 0.009487 µM) | relative viability (Dabrafenib + Decitabine; first compound 0.03 µM) | relative viability (Dabrafenib + Decitabine; first compound 0.09487 µM) | relative viability (Dabrafenib + Decitabine; first compound 0.3 µM) | relative viability (VX-702 + Vorinostat; first compound 0.02 µM) | relative viability (VX-702 + Vorinostat; first compound 0.2 µM) | relative viability (VX-702 + Vorinostat; first compound 0.6325 µM) | relative viability (VX-702 + Vorinostat; first compound 2 µM) | relative viability (Dabrafenib + Crizotinib; first compound 0.003 µM) | relative viability (Dabrafenib + Crizotinib; first compound 0.009487 µM) | relative viability (Dabrafenib + Crizotinib; first compound 0.03 µM) | relative viability (Dabrafenib + Crizotinib; first compound 0.09487 µM) | relative viability (Dabrafenib + Crizotinib; first compound 0.3 µM) | relative viability (VX-702 + Tozasertib; first compound 0.02 µM) | relative viability (VX-702 + Tozasertib; first compound 0.2 µM) | relative viability (VX-702 + Tozasertib; first compound 0.6325 µM) | relative viability (VX-702 + Tozasertib; first compound 2 µM)
1 | 201T | 0.853 | 0.825 | 0.731 | 0.846 | 0.769 | 0.966 | 0.956 | 1.09 | 1 | 1.04 | 1.01 | 0.939 | 1.03 | 1.03 | 0.959 | 0.921 | 0.937 | 0.914
2 | A549 |  | 0.277 | 0.201 | 0.212 | 0.0722 |  |  |  |  | 0.805 | 0.763 | 0.887 | 0.737 | 0.768 |  |  |  | 
3 | A-427 | 0.569 | 0.562 | 0.569 | 0.551 | 0.504 | 0.897 | 0.869 | 0.895 | 1.01 |  | 0.883 | 0.772 | 0.87 | 1.03 | 0.241 | 0.169 | 0.232 | 0.221
4 | ABC-1 |  | 1.07 | 1.15 | 1.28 | 1.54 | 1.46 | 0.922 | 1.17 | 1.41 |  | 1.11 | 1.02 | 0.961 | 1.34 | 0.152 | 0.162 | 0.18 | 0.207
5 | BEN |  | 0.865 |  | 0.721 | 0.656 | 0.63 | 0.559 | 0.643 | 0.559 |  | 0.985 |  | 0.749 | 1.09 | 0.532 | 0.432 | 0.481 | 0.55
6 | CAL-12T |  |  |  |  |  | 0.688 | 0.744 | 0.725 | 1.04 | 0.502 | 0.752 | 0.728 | 0.582 | 0.791 | 0.369 | 0.31 | 0.273 | 0.398
7 | COR-L23 | 0.475 | 0.47 | 0.41 | 0.432 | 0.279 | 0.511 | 0.47 | 0.46 | 0.491 | 0.644 | 0.627 | 0.633 | 0.607 | 0.55 | 0.202 | 0.231 | 0.171 | 0.244
8 | COR-L 105 | 0.6 | 0.691 | 0.666 | 0.681 | 0.675 | 0.734 | 0.805 | 0.795 | 0.855 | 0.843 | 0.987 | 0.67 | 0.719 | 0.851 | 0.225 | 0.338 | 0.353 | 0.355
9 | Calu-6 |  |  |  |  |  |  |  |  |  | 0.681 | 0.833 | 0.786 | 0.555 | 0.577 |  |  |  | 
10 | ChaGo-K-1 | 0.456 | 0.508 | 0.552 | 0.522 | 0.402 | 0.84 | 0.7 | 0.79 | 0.795 |  | 1.16 | 1.15 | 1.03 | 1.12 | 0.214 | 0.23 | 0.223 | 0.225
11 | EBC-1 |  |  |  |  |  |  |  |  |  |  | 0.193 | 0.207 | 0.196 | 0.245 |  |  |  | 
12 | EKVX |  | 0.38 | 0.29 | 0.44 | 0.353 | 0.823 | 0.671 | 0.676 | 0.696 | 0.875 | 1.12 | 0.783 | 0.702 | 1.01 | 0.381 | 0.36 | 0.379 | 0.423
13 | EMC-BAC-2 |  | 0.959 | 0.974 | 0.933 | 0.905 | 0.477 | 0.427 | 0.496 | 0.427 | 0.859 | 0.749 | 0.678 | 0.672 | 0.828 | 0.349 | 0.278 | 0.272 | 0.304
14 | EPLC-272H |  | 0.393 | 0.367 | 0.365 | 0.442 | 0.401 | 0.571 | 0.535 | 0.438 |  | 1.17 | 0.784 | 0.976 | 0.83 | 0.345 | 0.235 | 0.418 | 0.289
15 | H3255 | 0.539 | 0.704 | 0.585 | 0.625 | 0.649 | 0.757 |  | 0.598 | 0.866 | 0.968 | 1.19 | 0.954 | 0.873 | 0.906 | 0.576 | 0.792 | 0.655 | 0.8
16 | HARA |  | 0.537 | 0.595 | 0.539 | 0.499 | 0.527 | 0.51 | 0.542 | 0.449 | 0.975 | 1.04 | 1.01 | 0.855 | 1.11 | 0.113 | 0.0909 | 0.118 | 0.117
17 | HCC-15 | 0.586 | 0.677 | 0.665 | 0.669 | 0.636 | 0.813 | 0.803 | 0.854 | 0.858 | 0.906 | 0.881 | 0.832 | 0.75 | 0.827 | 0.402 | 0.322 | 0.408 | 0.53
18 | HCC-44 | 1.04 | 0.851 | 0.921 | 0.963 | 0.872 | 1.17 | 1.09 | 1.19 | 1.16 | 0.769 | 0.785 | 0.847 | 0.718 | 0.794 | 0.765 | 0.893 | 1.05 | 1.3
19 | HCC-78 |  | 0.681 | 0.55 | 0.625 | 0.474 | 0.393 | 0.486 | 0.427 | 0.543 |  | 0.403 | 0.278 | 0.329 | 0.362 | 0.42 | 0.456 | 0.325 | 0.465
20 | HCC-366 | 0.392 | 0.33 | 0.404 | 0.364 | 0.176 | 0.402 | 0.38 | 0.427 | 0.133 |  | 0.542 | 0.436 | 0.44 | 0.572 | 0.156 | 0.095 | 0.0851 | 0.0835
21 | HCC-827 | 0.267 | 0.347 | 0.33 |  | 0.283 | 0.879 | 0.799 | 0.885 | 0.827 | 0.873 | 0.945 | 0.864 | 0.696 | 0.942 | 0.427 | 0.396 | 0.387 | 0.393
